Reference: PMC4154858, “Inhibition of the SR Protein-Phosphorylating CLK Kinases of Plasmodium falciparum Impairs Blood Stage Replication and Malaria Transmission” (PLoS ONE, 2014)

Columns and labels:
Type in all cases: biochemical
Conditions in all cases: labelled compound; histone H1, MBP or casein as phosphoacceptor; 10 µM ATP, Mg/Mn, pH 7.5, 37 °C
[1] = biological target: T1, PfCLK-4 (Plasmodium falciparum, UniProt O77306); assay: radiometric kinase assay of immunoprecipitate, autoradiography
T1 construct: gene PF3D7_0302100; endogenous full-length, about 160 kDa, immunoprecipitated from mixed asexual blood stage lysate on protein G-beads
T1 sequence (O77306 1-1338): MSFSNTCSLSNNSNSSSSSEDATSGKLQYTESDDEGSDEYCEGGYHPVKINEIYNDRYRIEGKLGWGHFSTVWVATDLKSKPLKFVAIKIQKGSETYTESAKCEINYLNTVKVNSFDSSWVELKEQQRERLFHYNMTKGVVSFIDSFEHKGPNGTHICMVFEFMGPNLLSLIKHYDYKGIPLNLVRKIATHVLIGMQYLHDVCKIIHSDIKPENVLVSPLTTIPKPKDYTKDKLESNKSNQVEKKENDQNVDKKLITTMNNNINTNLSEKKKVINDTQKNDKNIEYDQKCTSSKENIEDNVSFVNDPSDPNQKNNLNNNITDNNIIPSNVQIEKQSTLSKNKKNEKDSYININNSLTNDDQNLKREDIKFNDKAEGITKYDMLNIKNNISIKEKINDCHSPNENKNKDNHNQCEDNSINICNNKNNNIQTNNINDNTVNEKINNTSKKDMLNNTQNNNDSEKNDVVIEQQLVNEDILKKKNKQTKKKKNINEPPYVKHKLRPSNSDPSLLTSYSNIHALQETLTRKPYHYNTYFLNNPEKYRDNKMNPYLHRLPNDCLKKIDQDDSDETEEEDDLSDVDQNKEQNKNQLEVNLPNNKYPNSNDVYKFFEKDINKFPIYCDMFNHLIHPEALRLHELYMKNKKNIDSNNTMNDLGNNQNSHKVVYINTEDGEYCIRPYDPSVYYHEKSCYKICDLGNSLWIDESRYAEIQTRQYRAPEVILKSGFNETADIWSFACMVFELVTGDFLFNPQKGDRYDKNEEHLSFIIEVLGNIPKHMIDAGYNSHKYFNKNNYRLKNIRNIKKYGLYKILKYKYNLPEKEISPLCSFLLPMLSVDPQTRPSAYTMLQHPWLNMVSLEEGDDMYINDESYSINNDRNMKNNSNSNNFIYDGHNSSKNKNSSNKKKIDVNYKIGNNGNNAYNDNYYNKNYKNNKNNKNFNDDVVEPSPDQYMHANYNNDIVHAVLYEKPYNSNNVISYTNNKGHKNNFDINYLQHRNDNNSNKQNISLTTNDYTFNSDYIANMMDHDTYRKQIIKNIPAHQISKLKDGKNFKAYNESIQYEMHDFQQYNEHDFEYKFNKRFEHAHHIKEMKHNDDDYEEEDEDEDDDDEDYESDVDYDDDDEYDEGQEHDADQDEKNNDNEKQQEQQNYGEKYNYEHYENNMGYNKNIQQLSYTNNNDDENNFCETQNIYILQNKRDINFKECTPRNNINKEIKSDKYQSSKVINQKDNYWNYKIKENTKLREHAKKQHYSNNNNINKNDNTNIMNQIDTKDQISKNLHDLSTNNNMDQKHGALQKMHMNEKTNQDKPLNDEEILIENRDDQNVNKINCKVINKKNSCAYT

[2] = biological target: T2, PfCLK-3 (Plasmodium falciparum, UniProt Q8IIL5); assay: as above
T2 construct: gene PF3D7_1114700; endogenous full-length, about 80 kDa, immunoprecipitated from mixed asexual blood stage lysate on protein G-beads
T2 sequence (Q8IIL5 1-699): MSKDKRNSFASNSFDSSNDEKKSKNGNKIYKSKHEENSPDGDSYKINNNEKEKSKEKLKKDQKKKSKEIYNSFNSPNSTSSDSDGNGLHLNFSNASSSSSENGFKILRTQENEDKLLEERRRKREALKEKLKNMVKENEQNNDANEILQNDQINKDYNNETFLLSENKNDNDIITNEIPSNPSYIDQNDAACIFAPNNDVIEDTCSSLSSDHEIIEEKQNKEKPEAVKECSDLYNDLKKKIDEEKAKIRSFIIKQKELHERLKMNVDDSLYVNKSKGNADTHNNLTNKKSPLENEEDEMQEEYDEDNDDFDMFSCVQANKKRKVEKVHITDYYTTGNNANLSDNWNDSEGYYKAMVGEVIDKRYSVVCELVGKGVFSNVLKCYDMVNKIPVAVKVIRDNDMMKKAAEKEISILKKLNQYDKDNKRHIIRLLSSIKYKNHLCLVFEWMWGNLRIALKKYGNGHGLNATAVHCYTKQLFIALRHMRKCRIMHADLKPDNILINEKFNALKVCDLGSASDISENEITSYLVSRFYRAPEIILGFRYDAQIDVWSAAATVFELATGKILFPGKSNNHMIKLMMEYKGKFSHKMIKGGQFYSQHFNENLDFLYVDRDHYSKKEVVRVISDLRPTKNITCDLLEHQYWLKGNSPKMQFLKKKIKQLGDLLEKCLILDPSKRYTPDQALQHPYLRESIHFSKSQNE

[3] = biological target: T3, PfCLK-2 (Plasmodium falciparum, UniProt Q8IL41); assay: as above
T3 construct: gene PF3D7_1443000; endogenous full-length, about 150 kDa, immunoprecipitated from mixed asexual blood stage lysate on protein G-beads
T3 sequence (Q8IL41 1-1268): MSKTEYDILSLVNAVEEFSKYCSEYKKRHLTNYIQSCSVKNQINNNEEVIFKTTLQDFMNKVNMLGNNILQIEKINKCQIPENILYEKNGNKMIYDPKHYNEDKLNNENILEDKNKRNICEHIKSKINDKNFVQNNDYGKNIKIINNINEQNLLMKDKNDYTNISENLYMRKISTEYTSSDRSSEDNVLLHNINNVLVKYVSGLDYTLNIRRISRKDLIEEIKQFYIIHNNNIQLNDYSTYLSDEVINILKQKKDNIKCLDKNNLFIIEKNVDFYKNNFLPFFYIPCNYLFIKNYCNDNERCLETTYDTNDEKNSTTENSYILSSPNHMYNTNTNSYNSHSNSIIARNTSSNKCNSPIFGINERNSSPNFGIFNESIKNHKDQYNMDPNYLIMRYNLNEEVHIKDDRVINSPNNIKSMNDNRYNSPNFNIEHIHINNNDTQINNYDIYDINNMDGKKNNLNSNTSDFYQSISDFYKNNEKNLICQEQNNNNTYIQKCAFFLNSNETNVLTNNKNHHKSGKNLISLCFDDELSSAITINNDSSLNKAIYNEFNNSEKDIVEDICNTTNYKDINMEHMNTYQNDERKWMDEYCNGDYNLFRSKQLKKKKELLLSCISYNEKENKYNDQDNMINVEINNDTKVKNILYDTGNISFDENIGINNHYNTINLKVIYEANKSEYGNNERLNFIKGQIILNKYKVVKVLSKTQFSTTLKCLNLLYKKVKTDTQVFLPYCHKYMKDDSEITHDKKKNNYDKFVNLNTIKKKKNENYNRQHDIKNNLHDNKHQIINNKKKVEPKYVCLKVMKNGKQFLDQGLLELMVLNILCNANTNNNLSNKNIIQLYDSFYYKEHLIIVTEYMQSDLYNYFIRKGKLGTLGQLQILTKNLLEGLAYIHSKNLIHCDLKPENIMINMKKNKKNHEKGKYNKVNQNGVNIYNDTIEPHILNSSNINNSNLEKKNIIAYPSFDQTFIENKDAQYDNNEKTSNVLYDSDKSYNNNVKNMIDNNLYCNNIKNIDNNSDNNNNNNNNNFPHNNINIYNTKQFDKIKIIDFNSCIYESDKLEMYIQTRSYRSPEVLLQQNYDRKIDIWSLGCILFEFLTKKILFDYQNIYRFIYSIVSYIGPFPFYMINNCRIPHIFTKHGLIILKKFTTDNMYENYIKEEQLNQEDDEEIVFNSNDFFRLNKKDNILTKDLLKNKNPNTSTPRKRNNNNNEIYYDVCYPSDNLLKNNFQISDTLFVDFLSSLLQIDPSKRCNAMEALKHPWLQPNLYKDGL

[4] = biological target: T4, PfPK6 (Plasmodium falciparum, UniProt O77239); assay: radiometric kinase assay, autoradiography
T4 construct: gene PK6; recombinant His6-tagged, purified as previously reported
T4 sequence (O77239 1-305): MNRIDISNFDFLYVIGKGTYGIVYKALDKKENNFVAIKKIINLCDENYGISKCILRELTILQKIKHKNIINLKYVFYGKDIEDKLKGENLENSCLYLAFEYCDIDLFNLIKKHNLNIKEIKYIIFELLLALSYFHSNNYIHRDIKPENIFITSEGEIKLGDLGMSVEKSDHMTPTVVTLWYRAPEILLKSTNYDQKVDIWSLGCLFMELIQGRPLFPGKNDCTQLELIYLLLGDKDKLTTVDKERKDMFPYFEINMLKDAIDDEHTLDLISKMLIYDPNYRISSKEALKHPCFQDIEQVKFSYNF

Nc1ncnc2c1ncn2[C@@H]1O[C@H](COP(=O)(O)OP(=O)(O)OP(=O)(O)O)[C@@H](O)[C@H]1O [ATP]
radiometric kinase assay of immunoprecipitate, autoradiography [1]: All PfCLKs were associated with phosphorylation activity of all three substrates | radiometric kinase assay of immunoprecipitate, autoradiography [2]: All PfCLKs were associated with phosphorylation activity of all three substrates | radiometric kinase assay of immunoprecipitate, autoradiography [3]: All PfCLKs were associated with phosphorylation activity of all three substrates | radiometric kinase assay, autoradiography [4]: also exhibited strong phosphorylation activity of the three exogenous substrates
